Patent US12344879B2, “Transgenic bacteria with expanded amino acid usage and nucleic acid molecules for use in the same” (BOARD OF REGENTS, THE UNIVERSITY OF TEXAS SYSTEM, priority 2015, dated 2025)
Where “and” joins values, the source holds several entries; their conditions need not be identical. Equal entries are not always repeated.

Tests used:
[1] = tested on: NMC-A β-lactamase reporter (C69X C238X); assay: NMC-A β-lactamase reporter assay in strain lacking release factor 1; assay type: cell-based, E. coli RTΔA; details: RF1-deficient background, two amber codons
[2] = tested on: E. coli formate dehydrogenase H (FdhH); assay: Benzyl viologen assay; assay type: cell-based, E. coli DHΔabcF; details: FdhH U140TAG or U140S reporter, co-expressed with SelA, anaerobic
Description: The tRNA^Sec variant containing the G7-C66:U49-G65:C50-U64 (SEQ ID NO: 18) antideterminant sequence was designated tRNA^SecUx and was compared with the previously designed chimera (tRNA^UTu) and with a tRNA^Sec derivative designed to have an antideterminant region that should tightly bind EF-Tu (tRNA^UG; FIG. 2a). […] The hybrid tRNA^UTu incorporated selenocysteine and could grow on 75 μg·ml^−1. […] To further confirm tRNA^SecUx incorporated selenocysteine in response to amber stop codons, a standard colorimetric assay was employed based on the activity of the endogenous E. coli selenoprotein formate dehydrogenase H (FdhH) (FIG. 2b).
E. coli DH10B cells containing pRSFDuet-1 and pcat-pheS were used as a positive control. DHΔabcF cells harboring p15A-fdhF U140S and pRSF-UX-eSelA, and p15A-fdhF U140X and pRSF-UX-ΔSelA were used as controls for selenocysteine dependent formate dehydrogenase activity. Transformants were grown overnight at 37° C. in LB medium supplemented with 12.5 μg·mL^−1 tetracycline and 50 μg·mL^−1 kanamycin. Overnight cultures were diluted 1/20 in a final volume of 2 ml and incubated for three hours. Cultures were normalized to OD600=0.5 and 5 μl aliquots were dotted on LB agar plates containing 3.75 μg·mL^−1 tetracycline, 12.5 μg·mL^−1 kanamycin, 5 mM sodium formate, 10 μM Na2MoO4, 1 μM Na2SeO3 and 20 μg·mL^−1 L-cysteine. Plates were incubated at 37° C. for 3 h under aerobic conditions and then transferred to anaerobic conditions at 37° C. for 60 h. Upon removal from the anaerobic chamber, plates were immediately overlaid with agar containing 1 mg·mL^−1 benzyl viologen, 250 mM sodium formate and 25 mM KH2PO4 at pH 7.0. Plates were photographed within 1 h of overlaying.

[3] = tested on: E. coli dihydrofolate reductase (DHFR) position 39; assay: Selenocysteine incorporation into DHFR P39X by intact mass spectrometry; parameters: species or system E. coli RTΔA.2; details: for serine incorporation in DHFR: mass spectrometry; for selenocysteine incorporation efficiency in DHFR: peak areas of the mass spectrum
Excerpt: To further enhance the efficiency of selenocysteine incorporation, a number of steps were taken to improve the levels of Sec-tRNA^Sec relative to Ser-tRNA^Sec, including increasing the level of SelA, decreasing the gene dose of tRNA^SecUx, and co-expressing a phosphoseryl-tRNA^Sec kinase (see Example 2 below). […] In order to further validate selenocysteine incorporation, the Pseudomonas aeruginosa metalloprotein azurin was also expressed with its essential cysteine (C112) replaced by selenocysteine and the human selenoprotein cellular glutathione peroxidase (GPx-1) (FIGS. 6a-6e and 8a-8b). For azurin, this chemical change had previously proven possible only through expressed protein ligation,^22 the essential cysteine could now be biologically replaced with selenocysteine with good efficiency as measured by mass spectrometry of the intact protein.
RTΔA.2 transformants containing pDHFR-P39X-AU and pRSF-eSelAK were cultured ON in LB medium containing 100 μg·mL^−1 ampicillin, 50 μg·mL^−1 kanamycin and 1 μM Na2SeO3. Overnight cultures were diluted 1/500 in a final volume of 2 L LB medium containing 50 μg·mL^−1 ampicillin, 25 μg·mL^−1 kanamycin and 5 μM Na2SeO3 and incubated with agitation for 24 hours at 37° C. Cells were harvested by centrifugation at 8000×g for 10 min and resuspended in 20 mL of wash buffer (100 mM Tris, 150 mM NaCl, 1 mM EDTA at pH 8.0) with protease inhibitor cocktail (cOmplete, mini EDTA free, Roche) and lysozyme at 1 mg·mL^−1. Following a 20 min incubation at 4° C. cells were lysed by sonication (Model 500, Fisher Scientific) and clarified by three times by centrifugation at 35000×g for 30 min. Lysate was passed through a 0.2 µm filter and seleno-DHFR recovered using Strep-Tactin affinity chromatography following the manufacturer's instructions (GE Healthcare). Eluate was concentrated to 3 mL and dialyzed against 50 mM NH4Ac pH 6.5 prior to the isolation of seleno-DHFR by size exclusion FPLC (ÄKTA, GE Healthcare). Seleno-DHFR was produced using tRNA^SecUx with a yield of 68 μg·L^−1 and 100% incorporation efficiency. Seleno-DHFR was produced using tRNA^UTu with a yield of 131 μg·L^−1 and 38.1% incorporation efficiency. DHFR containing serine at position 39 was produced with a yield of 225 μg·L^−1.
Intact protein samples were analyzed using methods described previously (Ellefson et al., 2014). Azurin, DHFR and GPx-1 samples were buffer exchanged into LC-MS grade water using 10 kDa molecular weight cutoff filters. […] UVPD mass spectra were also deconvoluted using Xtract and then analyzed using ProsightPC 3.0. […] Incorporation efficiencies were calculated by dividing the area of the modified protein peak by the summed areas of the unmodified protein peak and the modified protein peak. […]

Substance | formation of functional diselenide bond (U69 and U238) in NMC-A [1] | FdhH activity (reduction of benzyl viologen) [2] | serine incorporation in DHFR [3] | selenocysteine incorporation efficiency in DHFR [3]
tRNA^SecUx: Evolved E. coli tRNA^Sec variant with the G7-C66:U49-G65:C50-U64 antideterminant sequence and CUA anticodon | could now support the formation of a functional diselenide bond | produced active FdhH | no detectable background | ~100%
tRNA^UTu (GGAAGATGTGGCCGAGCGGTTGAAGGCACCGGT; expressed or natural sequence) |  | produced active FdhH | 62% | 38% and 38.1%
